Results on eight compounds are retold here after ChEMBL document CHEMBL1201862, “PubChem BioAssay data set” (2004).

Calls of active or inactive are those of the source.

The target in assay [1] is Sphingosine 1-phosphate receptor 2 (Homo sapiens, UniProt O95136). Description: Dose Response Cell Based Assay for Agonists of the S1P2 Receptor of Purchased Analogues. [Related pubchem assays: 729, 843, 854, 736 ]. Format: functional.
Assay [2] can be described thus: microbe, parasite or virus in culture. As to conditions: Mycobacterium tuberculosis. Format: functional.
Assay [3] in a line: M. tuberculosis growth inhibition, HTS (AID 449762). Format: functional.
Assay [4] addresses Potassium voltage-gated channel subfamily KQT member 2 (Rattus norvegicus, UniProt O88943, W236L). Description: KCNQ2 channel potentiators, dose response, mechanism study for KCNQ2 potentiator project, cell-based, automated electrophysiology (AID 2603). Format: functional.
A further assay has as its system INS1. Kind of assay: beta cell apoptosis inhibitors, cytokine rescue, dose response, luminescence, retest (AID 449756).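 Further: cell death triggered by IL-1 beta plus TNF-alpha plus IFN-gamma mixture; protective hits raise ATP signal compared with cytokine alone wells.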 Format: functional, cell-based. As to conditions: Rattus norvegicus.
In another assay the target is Galanin receptor type 2 (Homo sapiens, UniProt O43603). Kind of assay: Dose Response cell-based high-throughput screening assay to identify antagonists of galanin receptor 2 (GALR2). [Related pubchem assays: 828, 866 ]. Format: functional.
Chain of Galanin receptor type 2 (O43603 whole entry): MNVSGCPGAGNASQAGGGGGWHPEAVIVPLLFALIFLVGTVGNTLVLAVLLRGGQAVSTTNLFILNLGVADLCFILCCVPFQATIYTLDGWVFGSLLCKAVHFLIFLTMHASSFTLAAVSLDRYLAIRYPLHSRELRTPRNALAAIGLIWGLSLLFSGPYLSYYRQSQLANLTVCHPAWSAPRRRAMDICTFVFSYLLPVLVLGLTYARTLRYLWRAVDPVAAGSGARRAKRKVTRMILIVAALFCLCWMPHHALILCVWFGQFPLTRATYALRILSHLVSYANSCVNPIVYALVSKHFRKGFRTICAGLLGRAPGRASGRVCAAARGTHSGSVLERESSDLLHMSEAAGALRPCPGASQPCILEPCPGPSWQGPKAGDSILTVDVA
Assay [5] can be described thus: Luminescence Cell-Based Dose Confirmation to Identify Activators of 5'UTR Stem-Loop Driven Alpha-Synuclein mRNA Translation in H4 Neuroglioblastoma Cells. [Related pubchem assays: 1829 (Project Summary), 1814 (Primary HTS)]. Format: functional.
The nature of assay [6]: Luminescence Cell-Based Dose Response to Identify Activators of Luciferase Translation or Activity in H4-C Neuroglioblastoma Cells. [Related pubchem assays: 1829 (Project Summary), 1814 (Primary HTS)]. Format: functional.
Assay [7] is described as follows: Luminescence Cell-Based Dose Response to Identify Activators of 5'UTR Stem-Loop Driven Prion Protein mRNA Translation in H4-C Neuroglioblastoma Cells. [Related pubchem assays: 1829 (Project Summary), 1814 (Primary HTS)]. Format: functional.
The test system of the next assay is H4. Description: Luminescence Cell-Based Dose Response HTS to Identify Activators of 5'UTR Stem-Loop Driven Prion Protein mRNA Translation in H4 Neuroglioblastoma Cells. [Related pubchem assays: 1829 (Project Summary), 1814 (Primary HTS)]. Format: functional. The note with it: Homo sapiens.
Assay [8] can be described thus: Luminescence Cell-Based Dose Response HTS to Identify Activators of Luciferase Translation or Activity in H4 […] Cells. [Related pubchem assays: 1829 (Project Summary), 1814 (Primary HTS)]. Format: functional.
Assay [9] is described as follows: Luminescence Cell-Based Dose Confirmation HTS to Identify Activators of 5'UTR Stem-Loop Driven Alpha-Synuclein mRNA Translation in H4 Neuroglioblastoma Cells. [Related pubchem assays: 1829 (Project Summary), 1814 (Primary HTS)]. Format: functional.
The target in a further assay is Genome polyprotein (Hepatitis C virus, UniProt Q2Q167). Description: HCV core protein dimerization inhibitors, dose response, biochemical, TR-FRET (AID 2159).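 Further: blocks dimerization of HCV core protein measured by TR-FRET between tagged core106 pairs.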 Further details: species or system Hepacivirus hominis. In general terms: TR-FRET usually uses a lanthanide donor and a delayed reading to cut background.
Chain of Genome polyprotein (Q2Q167 whole entry): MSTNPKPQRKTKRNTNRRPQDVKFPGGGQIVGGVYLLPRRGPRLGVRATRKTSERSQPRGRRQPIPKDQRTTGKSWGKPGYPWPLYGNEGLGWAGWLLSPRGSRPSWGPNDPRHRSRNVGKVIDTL
Assay [10] addresses T1, Tyrosine-protein phosphatase non-receptor type 7 (Homo sapiens, UniProt P35236).
T1 sequence (P35236 whole entry): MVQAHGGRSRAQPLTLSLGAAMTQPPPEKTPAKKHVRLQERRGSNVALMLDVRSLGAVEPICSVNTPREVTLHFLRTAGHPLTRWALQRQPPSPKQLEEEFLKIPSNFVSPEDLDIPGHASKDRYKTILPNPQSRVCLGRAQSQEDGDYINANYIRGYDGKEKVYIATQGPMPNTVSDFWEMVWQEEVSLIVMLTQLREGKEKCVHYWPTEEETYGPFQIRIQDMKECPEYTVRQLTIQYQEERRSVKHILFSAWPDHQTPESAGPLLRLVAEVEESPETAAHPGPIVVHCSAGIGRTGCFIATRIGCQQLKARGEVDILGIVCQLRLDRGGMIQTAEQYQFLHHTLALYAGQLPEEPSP
Description: inhibitors of human HePTP phosphatase, […], biochemical, absorbance, leukemia target (AID 521). Format: functional.

In the next assay the target is Ion channel NompC (Danio rerio, UniProt Q7T1G6). Description: Fluorescence counterscreen assay for TRPML3 agonists: dose response cell-based high-throughput screening assay to identify agonists of the transient receptor potential channel N1 (TRPN1). [Related pubchem assays: 1526, 1424, 1448 ]. Format: functional. On the technique in general: A counterscreen serves to expose hits that act by an unwanted route or on another target.
Chain of Ion channel NompC (Q7T1G6 whole entry): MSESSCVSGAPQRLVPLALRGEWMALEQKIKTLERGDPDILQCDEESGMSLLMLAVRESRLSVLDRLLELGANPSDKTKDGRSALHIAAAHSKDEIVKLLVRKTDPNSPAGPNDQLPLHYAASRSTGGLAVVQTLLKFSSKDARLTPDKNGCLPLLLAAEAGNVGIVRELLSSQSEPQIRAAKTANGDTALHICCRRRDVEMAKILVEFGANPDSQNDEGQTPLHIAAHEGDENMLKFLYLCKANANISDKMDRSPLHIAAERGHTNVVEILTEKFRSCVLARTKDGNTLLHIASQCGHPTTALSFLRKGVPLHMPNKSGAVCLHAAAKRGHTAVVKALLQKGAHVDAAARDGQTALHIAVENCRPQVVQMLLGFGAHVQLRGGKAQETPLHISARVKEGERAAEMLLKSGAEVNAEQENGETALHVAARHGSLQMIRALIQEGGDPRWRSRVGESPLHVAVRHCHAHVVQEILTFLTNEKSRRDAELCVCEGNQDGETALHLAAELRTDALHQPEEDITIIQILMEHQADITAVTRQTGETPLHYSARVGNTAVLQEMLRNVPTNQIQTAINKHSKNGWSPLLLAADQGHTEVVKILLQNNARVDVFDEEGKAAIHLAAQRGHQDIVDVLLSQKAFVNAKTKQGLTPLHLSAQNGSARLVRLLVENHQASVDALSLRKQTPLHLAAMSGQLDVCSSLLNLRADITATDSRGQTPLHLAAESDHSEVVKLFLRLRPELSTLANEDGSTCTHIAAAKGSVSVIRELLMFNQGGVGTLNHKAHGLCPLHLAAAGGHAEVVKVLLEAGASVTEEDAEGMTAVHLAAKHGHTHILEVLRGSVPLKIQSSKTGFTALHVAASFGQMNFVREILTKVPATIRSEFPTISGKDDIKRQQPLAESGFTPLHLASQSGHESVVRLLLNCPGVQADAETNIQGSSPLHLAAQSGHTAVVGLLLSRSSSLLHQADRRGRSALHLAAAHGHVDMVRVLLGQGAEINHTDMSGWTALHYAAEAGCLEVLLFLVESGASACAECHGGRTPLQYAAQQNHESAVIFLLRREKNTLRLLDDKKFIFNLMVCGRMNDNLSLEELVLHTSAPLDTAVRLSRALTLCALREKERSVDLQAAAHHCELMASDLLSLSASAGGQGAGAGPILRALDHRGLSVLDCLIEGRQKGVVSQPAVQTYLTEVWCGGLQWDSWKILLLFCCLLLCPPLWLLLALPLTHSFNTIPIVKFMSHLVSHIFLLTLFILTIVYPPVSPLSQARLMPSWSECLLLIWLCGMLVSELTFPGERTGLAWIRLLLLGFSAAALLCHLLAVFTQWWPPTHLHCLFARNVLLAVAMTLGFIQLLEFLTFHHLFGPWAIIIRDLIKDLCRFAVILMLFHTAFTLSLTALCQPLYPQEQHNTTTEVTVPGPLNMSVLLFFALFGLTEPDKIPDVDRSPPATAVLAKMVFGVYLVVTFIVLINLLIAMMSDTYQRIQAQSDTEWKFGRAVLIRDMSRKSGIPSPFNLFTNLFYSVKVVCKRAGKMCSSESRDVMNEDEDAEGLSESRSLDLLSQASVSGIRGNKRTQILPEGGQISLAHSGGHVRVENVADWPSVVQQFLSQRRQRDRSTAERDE

A further assay deals with Mucolipin-3 (Homo sapiens, UniProt Q8TDD5). Kind of assay: Dose response cell-based high-throughput screening assay for agonists of the transient receptor potential channel ML3 (TRPML3). [Related pubchem assays: 1526, 1424, 1448 ]. Format: functional.
Chain of Mucolipin-3 (Q8TDD5 whole entry): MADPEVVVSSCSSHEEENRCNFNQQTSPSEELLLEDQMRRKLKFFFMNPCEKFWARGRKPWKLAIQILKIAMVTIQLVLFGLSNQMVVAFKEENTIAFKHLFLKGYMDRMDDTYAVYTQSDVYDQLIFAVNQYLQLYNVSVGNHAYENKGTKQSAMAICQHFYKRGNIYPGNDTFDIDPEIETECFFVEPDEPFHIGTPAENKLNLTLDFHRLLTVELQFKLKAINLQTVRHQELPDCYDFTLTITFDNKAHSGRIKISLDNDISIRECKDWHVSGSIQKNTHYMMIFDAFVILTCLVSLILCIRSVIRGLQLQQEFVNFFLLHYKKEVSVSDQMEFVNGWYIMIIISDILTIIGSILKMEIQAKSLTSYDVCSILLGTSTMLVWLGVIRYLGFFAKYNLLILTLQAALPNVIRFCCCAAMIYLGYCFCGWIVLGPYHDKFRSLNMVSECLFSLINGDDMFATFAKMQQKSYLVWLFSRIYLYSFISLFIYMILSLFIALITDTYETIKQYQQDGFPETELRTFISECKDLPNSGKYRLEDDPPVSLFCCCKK

Chain of Potassium voltage-gated channel subfamily KQT member 2 (O88943 whole entry W236L): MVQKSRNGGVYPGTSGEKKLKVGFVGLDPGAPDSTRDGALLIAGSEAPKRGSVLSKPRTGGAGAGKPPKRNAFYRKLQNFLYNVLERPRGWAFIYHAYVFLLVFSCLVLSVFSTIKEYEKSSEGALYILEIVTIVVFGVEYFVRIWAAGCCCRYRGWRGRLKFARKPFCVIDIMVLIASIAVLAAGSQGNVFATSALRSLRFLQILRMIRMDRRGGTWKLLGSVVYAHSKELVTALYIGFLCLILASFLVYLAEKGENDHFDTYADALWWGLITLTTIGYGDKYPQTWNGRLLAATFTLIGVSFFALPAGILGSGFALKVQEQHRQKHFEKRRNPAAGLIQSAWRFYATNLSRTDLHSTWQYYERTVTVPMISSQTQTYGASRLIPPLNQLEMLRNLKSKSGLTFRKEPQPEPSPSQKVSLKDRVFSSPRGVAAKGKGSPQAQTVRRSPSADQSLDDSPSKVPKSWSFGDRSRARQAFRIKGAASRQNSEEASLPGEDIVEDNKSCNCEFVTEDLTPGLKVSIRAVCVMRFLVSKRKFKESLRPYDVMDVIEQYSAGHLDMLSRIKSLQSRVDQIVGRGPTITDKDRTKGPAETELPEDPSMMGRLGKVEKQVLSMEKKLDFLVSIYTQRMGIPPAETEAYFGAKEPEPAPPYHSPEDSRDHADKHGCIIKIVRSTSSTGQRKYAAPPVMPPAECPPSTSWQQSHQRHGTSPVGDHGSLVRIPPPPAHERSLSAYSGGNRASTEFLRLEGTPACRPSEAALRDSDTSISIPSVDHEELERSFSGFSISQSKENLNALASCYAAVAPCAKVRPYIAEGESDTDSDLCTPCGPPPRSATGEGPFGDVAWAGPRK
Chain of Sphingosine 1-phosphate receptor 2 (O95136 whole entry): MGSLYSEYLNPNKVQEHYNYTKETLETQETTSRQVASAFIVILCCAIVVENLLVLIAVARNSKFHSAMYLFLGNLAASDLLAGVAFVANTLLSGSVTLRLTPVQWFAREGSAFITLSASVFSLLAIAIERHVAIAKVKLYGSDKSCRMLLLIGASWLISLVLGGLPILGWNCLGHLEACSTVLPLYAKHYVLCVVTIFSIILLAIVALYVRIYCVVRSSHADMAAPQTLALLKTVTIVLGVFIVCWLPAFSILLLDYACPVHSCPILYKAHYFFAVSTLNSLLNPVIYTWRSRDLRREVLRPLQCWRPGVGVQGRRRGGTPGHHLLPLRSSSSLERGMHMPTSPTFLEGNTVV

For orientation: EC50 means the midpoint of the concentration-response curve. Regarding `Cc1cc(C(=O)COC(=O)CN2C(=O)C3CCCCC3C2=O)c(C)n1Cc1ccccc1` (stereo unspecified), in assay [1], the EC50 is > 30 µM (not active).

In general, IC50 refers to the concentration that gives 50% inhibition. For `COc1cc2c(-c3ccc4[nH]ccc4c3)c(-c3ccc(C#N)cc3)oc(=O)c2cc1OC`, the CC50 in [2] was > 40 µM (active). The IC50 in [3] was > 100 µM (active).

With `Cc1nc(C)c(-c2csc(Nc3ccccn3)n2)s1`, in assay [4], the EC50 is 115 µM (active).

A word on the AC50: it is the concentration giving half of the maximal activity seen. Turning to `CCOC(=O)N1CCN(c2[nH]cnc3c4cc(F)ccc4nc2-3)CC1`, the AC50 in the assay on INS1 was 5.61 µM (active). Besides, the IC50 at Galanin receptor type 2 was 45.6 µM (not active).

For `CC1CCCCN1CCCNC(=O)c1ccc2nc(N3CCCCC3)sc2c1` (stereo unspecified), the EC50 in assay [5] was 0.593 µM (active); in assay [6], 0.397 µM (active); in assay [7], 0.994 µM (active); in the assay on H4, 15.1 µM (active); in assay [8], < 0.1 µM (active); in assay [9], 0.177 µM (active).

Regarding `CC1(C)Cc2c(C#N)c(N3CCN(C(=O)c4ccco4)CC3)nc(-c3ccco3)c2CS1`, the IC50 against Genome polyprotein is listed as > 49.8 µM (not active).

For the compound `O=c1c2c3c(sc2nc2n1CCC2)CCC3`, the IC50 in [10] is > 100 µM (not active).

As for `CSc1nc2ccccc2nc1N(C)S(=O)(=O)c1ccc(C)cc1`, the EC50 at Ion channel NompC and at Mucolipin-3 was > 29.9 µM (not active) in each case.
